# “Also recorded” adds a separate entry of the source.
# Legend:
# [1] = test system: CD11b positive macrophages; experiment: Macrophage infiltration into gastrocnemius muscle / peripheral axons (anti-CD11b staining); format: in vivo, mouse; settings: SOD1 animals, load 2.5 mg/kg then 1.8 mg/kg oral weekly from day 50, gastrocnemius at day 100, vs untreated SOD1
# Method: SOD1 animals were treated with a loading dose of 2.5 mg/kg fingolimod, followed by weekly oral dosing of 1.8 mg/kg. Dosing was initiated at 50 days of age for the three cohorts: • 1) Non transgenic controls • 2) untreated SOD1 • 3) SOD1 Fingolimod Treated “High Dose” (Load 2.5 mg/kg, 1.8 mg/kg Oral q7d)
# Gastrocnemius muscle was harvested from non-transgenic control, untreated SOD1 and fingolimod treated animals at 100 days of age. Tissues were immediately embedded in OCT after harvesting. Frozen sections were H&E stained and hybridized with antibodies to detect macrophages (αCD11b antibody).
# [2] = test system: CD8+ lymphocytes; experiment: FACS analysis of circulating CD8+ lymphocytes in whole blood of SOD1 mice; format: in vivo, mouse; settings: for CD8+ cells in whole blood: 4 hours after third dose, control approximately 5%
# Method: FIG. 3A is a fluorescent activated cell sorting (FACS) analysis showing the reduction of CD8+ lymphocytes in the circulation of male SOD1 mice that results from fingolimod treatment. A high dose of fingolimod (IP Loading Dose 2.5 mg/kg, Maintenance Dose 1.8 mg/kg q7d), a low dose of fingolimod (IP Loading Dose 0.44 mg/kg, Maintenance Dose 0.32 mg/kg) and a vehicle control group were tested over 14 days. Tissues were harvested 4 hours after the third dose. This time point was selected to best characterize the behavior of lymphocytes when circulating levels of the drug were near peak.
# (§1) The following dosage regimen was used to determine the dose dependent effects of fingolimod in SOD1 mice: • Cohorts: • 1) SOD1 Fingolimod Treated “High Dose” (Load 2.5 mg/kg, 1.8 mg/kg Oral q7d) • 4 hour post final dose harvest • 7 day post final dose harvest • 2) SOD1 Fingolimod Treated “Low Dose” (Load 0.44 mg/kg, 0.32 mg/kg Oral q7d) • 4 hour post final dose harvest • 7 day post final dose harvest • 3) SOD1 Vehicle Control • 4 hour post final dose harvest • 7 day post final dose harvest
# (§2) The predicted plasma fingolimod load for both the high dose and the low dose regimes were determined, see FIGS. 2A and 2B. Tissues were harvested 4 hours after the third fingolimod dose. This time point was selected to best characterize the behavior of lymphocytes in animals treated with fingolimod when circulating levels of the drug are near peak concentration.
# [3] = test system: CD4+ lymphocytes; experiment: FACS analysis of circulating CD4+ lymphocytes in whole blood of SOD1 mice; format: in vivo, mouse; settings: for CD4+ cells in whole blood: 4 hours after third dose, control approximately 12%
# Method: FIG. 3B is a FACS analysis showing the reduction of CD4+ lymphocytes in the circulation of male SOD1 mice that received fingolimod treatment. Dosing of fingolimod and time points were the same as in FIG. 3A.
# as §1, §2
# [4] = test system: lymphocytes, dendritic cells, regulatory T cells; settings: cited from earlier work
# [5] = test system: lymphocytes in the spleen; experiment: Lymphocyte cell counts in spleen by FACS; format: in vivo, mouse; settings: vs untreated SOD1
# Method: FIG. 5 is a graph showing cell counts in spleens of animals. SOD1 animals received a loading dose of 2.5 mg/kg fingolimod orally, then oral 1.8 mg/kg once weekly for 3 weeks. Lymphocyte counts were measured via FACS for various cell surface antigens in the spleen.
# Lymphocytes were also measured in the spleens of SOD1 fingolimod treated mice and untreated SOD1 mice. After sacrifice, spleens were harvested from each animal and subjected to fluorescent activated cell sorting for each of the cell surface antigens: CD11b, CD28, CD3, CD4, CD86, […], and LY6G.
# [6] = test system: CD45R positive cells; experiment: Circulating CD45R positive cells in whole blood of SOD1 mice; format: in vivo, mouse; settings: SOD1 animals, high and low dose groups
# Method: as §1, §2
# [7] = test system: experimental autoimmune neuritis; settings: Zhang et al. 2008, cited from earlier work
# [8] = test system: blood cells; experiment: Complete blood cell counts in whole blood; format: in vivo, mouse; settings: vs untreated SOD1
# Method: FIG. 6 is a graph showing complete blood cell counts in whole blood. SOD1 animals received a loading dose of 2.5 mg/kg fingolimod orally, then oral 1.8 mg/kg once weekly for 3 weeks. Complete blood cell counts included basophils (BAS), eosinophils (EOS), monocytes (MON), lymphocytes (LYM), neutrophils (NEU), and white blood cells (WBC).
# Whole blood counts were also measured. Upon sacrifice, blood was removed and complete blood cell counts were performed.
# [9] = SOD1 animals, high and low dose groups
# [10] = high dose (load 2.5 mg/kg, 1.8 mg/kg q7d)
# [11] = low dose (load 0.44 mg/kg, 0.32 mg/kg q7d)
# [12] = whole blood, vs vehicle control
# [13] = load 2.5 mg/kg oral then 1.8 mg/kg once weekly for 3 weeks
structure (smiles),measurement,setting,value
"CCCCCCCCc1ccc(CCC(N)(CO)CO)cc1 [fingolimod, 2-amino-2-(4-octylphenethyl)propane-1,3-diol]",CD11b positive macrophages infiltrating the skeletal muscle / peripheral axons,[1],significantly fewer
same,CD11b positive macrophages infiltrating the skeletal muscle / peripheral axons,[1]; listed as Fingolimod,ability to block macrophage infiltration into peripheral axons
same,circulating CD8 positive cells in whole / peripheral blood (in words),[2]; [9],fewer; also recorded: transiently depletes
same,CD8+ cells in whole blood,[2]; [10],less than 2%
same,CD8+ cells in whole blood,[2]; [11],less than 2%
same,reduction in CD8+ cells,[2]; [12],> 66%
same,reduction in CD8+ cells (fold),[2]; [12],over three-fold
same,circulating CD4 positive cells in whole / peripheral blood (in words),[3]; [9],fewer; also recorded: transiently depletes
same,CD4+ cells in whole blood,[3]; [10],approximately 5%
same,CD4+ cells in whole blood,[3]; [11],approximately 5%
same,reduction in CD4+ cells,[3]; [12],at least 50%
same,reduction in CD4+ cells (fold),[3]; [12],over two-fold
same,circulating dendritic cells,"[4]; Lan 2005, 2008",large increase
same,effect on lymphocyte population,[4]; Tsunemi 2010 and Zemann 2006,lymphopenia
same,regulatory T cells,[4]; Zhang et al. 2009,increase
same,"lymphocyte count, CD11b",[5]; [13],decreased lymphocyte count
same,"lymphocyte count, CD3",[5]; same regimen,decreased lymphocyte count
same,"lymphocyte count, CD4",[5]; same regimen,decreased lymphocyte count
same,"lymphocyte count, CD28",[5]; same regimen,decreased lymphocyte count
same,"lymphocyte count, CD86",[5]; same regimen,decreased lymphocyte count
same,"lymphocyte count, CTLA34",[5]; same regimen,decreased lymphocyte count
same,"lymphocyte count, LY6G",[5]; same regimen,decreased lymphocyte count
same,circulating CD45R positive cells in whole blood (in words),[6],fewer
same,severity and duration of experimental autoimmune neuritis,[7],reduced the severity and duration
same,paraparesis,[7]; if administrated with immunization,suppress paraparesis
same,basophils (BAS) count,[8]; [13],decreased numbers
same,eosinophils (EOS) count,[8]; same regimen,decreased numbers
same,lymphocytes (LYM) count,[8]; same regimen,decreased numbers
same,monocytes (MON) count,[8]; same regimen,decreased numbers
same,neutrophils (NEU) count,[8]; same regimen,no significant change
same,white blood cells (WBC) count,[8]; same regimen,decreased numbers

# From patent US8946301B2, “Targeting of T-lymphocytes to treat amyotrophic lateral sclerosis” (ALS Therapy Development Institute, priority 2011, dated 2015)
